In patent US20210161894A1, “Compositions and Methods for Modulating Liver Endothelial Cell Fenestrations” (priority 2017, published 2021):
Entries after “also recorded” stand apart in the source; their conditions may differ.

Columns and labels:
[1] = tested on: isolated LSECs (liver sinusoidal endothelial cells); assay: SEM of fenestrations in isolated LSECs from young and old mice after 30 min drug treatment (second Example 7); format: cell-based; conditions: for Diameter / Frequency / Porosity: 30 min; for effect on porosity and fenestration frequency (summary in words): young and old LSECs
Description: 3-4 and 18-24 month old male C57/B16 mice were obtained from the Animal Resource Centre in Perth, Western Australia. Animals were housed at the ANZAC Research Institute animal house on a 12 hour light/dark cycle and provided with ad libitum access to food and water. Mice were not fasted prior to euthanasia by a single intraperitoneal injection with 100 mg/kg ketamine and 10 mg/kg xylazine in saline. The study was approved by the Animal Welfare Committee of the Sydney Local Health District and was performed in accordance with the Australian Code of Practice for the care and use of animals for scientific research (AWC 2016/009). All information provided accords with the ARRIVE guidelines.
As described previously (Cogger et al. J e52698, 2015 https://dx.doi.org/10.3791/52698), mouse LSEC isolation was performed by perfusion of the liver with collagenase. Non-parenchymal cells were removed by a two-step Percoll gradient and Kupffer cells were removed by selective adherence to plastic. LSECs (seeded at 0.5×10^6 cells/cm2) were cultured (37° C., 5% CO2) in serum free RPMI-1640 for 3.5 hours before use.
Cells were treated with various agents for 30 minutes to determine effects on fenestrations. All agents were dissolved in serum-free RPMI media. All experiments were performed in triplicate for both young and old mice. Actin was disrupted with 0.5 μg/ml cytochalasin D and lipid rafts were disrupted with 3.6 and 1.8 μg/ml 7-keocholesterol; dosages were selected. […] The serotonergic/phospholipase C pathway was promoted with DOI (0.1 μg/ml) and endothelin receptors were inhibited by bosentan (550, 55 and 5.5 ng/ml) Death receptor 4 was promoted with TRAIL (100, 10. 1, 0.1 and 0.01 ng/ml) and NAD+ was promoted with NMN (5000, 50, 10, 1 and 0.1 μg/ml).
SEM was performed as previous described (Corbin et al J Biol Chem 274: 13729-13732, 1999.). LSECs were fixed in 2.5% glutaraldehyde in 0.1M sodium cacodylate buffer, osmicated, dehydrated in graded ethanol and hexamethyl disilazane, mounted on stubs, sputter coated with platinum and examined using a JEOL 6380 Scanning Electron Microscope (JEOL Ltd, Japan). Images at 10,000× magnification were collected by a blinded observer and used to measure fenestration diameter and LSEC porosity using Image J (NIH, MD, USA). […] Fenestrations less than 30 nm and gaps more than 300 nm were excluded from analysis. Porosity was defined as the percentage of the cell membrane covered with fenestrations. Frequency was defined at the number of fenestrations per […].
Individual specifications of analyses are described in figures legends. All data are presented as mean±SD. Experimental design and analysis were performed in accordance with the APS guidelines described in Curran-Everett and Benos DJ. Adv Physiol Educ 31: 295-298, 2007.

[2] = tested on: LSEC fenestrations; assay: SEM of LSEC fenestrations after drug treatments (Example 2, FIGS. 1-6); format: cell-based, mice; conditions: for sieve plates and fenestration density on SEM images: young and old mice; for change in fenestration diameter: Bosentan 0.1 μM, Sildenafil 300 ng/ml, TRAIL 1 μg/ml
Excerpt: Young and old C57B16 mice (n=3 young mice, age 3-4 and n=3 old mice, 20-24 months) were maintained under full SPF conditions and with ad libitum feeding. The study had the approval of the Sydney South West Area Health Service Animal Welfare Committee. Mice at 20-24 months are senescent. Animals were sacrificed withCO2 and livers immediately perfusion-fixed via a 23G needle inserted into the portal vein. Liver tissue was fixed with1% glutaraldehyde/4% para-formaldehyde in PBS (0.1M sucrose).
Drug treatments and dosages (shown superimposed on their corresponding image in FIGS. 1, and 2) were performed by incubating liver cells at 37° C., 5% CO2 for 30 mins using RPMI with or without dissolved drug. All images were taken by two blinded researchers using a SEM at 10,000×, scale bars of 1 μm are shown.
Each data point represents the average±SD of 8 images (as shown in FIGS. 1 and 2), 616-3312 fenestration raw data points were collected per treatment.

[3] = tested on: actin cytoskeleton of LSECs; assay: dSTORM imaging of the actin cytoskeleton; format: cell-based; conditions: young mice
Description: dSTORM imaging was performed using an in-house microscope. LSECs were prepared for dSTORM by washing twice with PBS and fixation with 4% paraformaldehyde for 30 mins. Then LSECs were washed twice with PBS, permeabilised with Triton-X for 90 secs, blocked with 5% bovine serum albumin for 1 hour, and stained with Alexa Flour phalloidin 488 (1:40) for 20 min prior to imaging. Cells were washed using PBS with 0.1% Tween and placed in OxEA buffer (30) for dSTORM visualisation and image capture. The dSTORM used 488 and 647 nm excitation from diode-pumped lasers (Coherent Inc, CA, USA). Excitation was delivered via a 1.49NA 60× oil-immersion TIRF objective (Olympus Australia, AUS). Fluorescence was captured on two separate sCMOS cameras (Imaging Development Systems GmbH, Germany). Data was collected for up to 40,000 images at around 75 fps. 5-8 whole cell images were collected by a blinded observer for each treatment dosage and processed using rapidSTORM open source software (Wolter et al. Nat Methods 9: 1040, 2012.). Each image was examined for all sieve plates and actin structures. Densitometry measurements were performed using 5-8 dSTORM images with data analysis performed using Image J software (NIH, MD, USA).

[4] = tested on: Intracellular cGMP; assay: Cyclic GMP ELISA; format: cell-based, mice
Description: Assays for MTT and cGMP were performed as instructed by the kit. Briefly, MTT assays were performed following drug treatments. Cells were washed with PBS and incubated with RPMI media containing […] MTT solution. Cells were incubated at 37° C. for 4 hrs and lysed with […] solubilisation solution, 30 mins colour development followed and measured at 570 nm using a spectrophotometer. cGMP assays were also performed after drug treatments. Cells were washed with PBS and lysed with 0.1M HCl. Following sample collection the sample was acetylated and prepared with kit reagents. Samples were incubated for 18 hrs at 4° C. before examination at 410 nm with a spectrophotometer.

[5] = tested on: NAD+; conditions: cited from earlier work
[6] = old rats, 500 mg/kg; cited from earlier work
[7] = tested on: human umbilical vein endothelial cells; conditions: 15 mins of 1 μg/ml treatment; cited from earlier work

For `NC(=O)c1ccc[n+]([C@@H]2O[C@H](COP(=O)([O-])O)[C@@H](O)[C@H]2O)c1` [NMN, nicotinamide mononucleotide], the gap formation [1] was “Gap formation was apparent”, the “fenestration porosity after treatment” value ([1]; LSECs from young mice, increase from 4.6%) was 8.1% and the average fenestration diameter ([1]; old mice) was 132±2 nm. The increase in frequency ([1]; old mice, 50 pg/ml) was 2.25 fold, the increase in porosity ([1]; old mice, 50 pg/ml) was 2.5 fold and the Diameter ([1]; old mice, 50 μg/ml) was 132.12 ± 2.28 nm. The Frequency ([1]; old mice, 50 μg/ml) was 3.95 ± 1.35 no/area, the Porosity ([1]; old mice, 50 μg/ml) was 5.92 ± 1.94 % and the Diameter ([1]; old mice, 5000 μg/ml) was 139.05 ± 11.97 nm. The Frequency ([1]; old mice, 5000 μg/ml) was 3.39 ± 0.60 no/area, the Porosity ([1]; old mice, 5000 μg/ml) was 5.55 ± 1.75 % and the “effect on porosity and fenestration frequency (summary in words)” value [1] was “significant increases in porosity and fenestration frequency in both young and old LSECs”. For the same molecule, the “dose response on fenestration porosity (words)” value ([1]; young mice) was “broad range”, the Diameter ([1]; young mice, 50 μg/ml) was 127.68 ± 8.19 nm and the Frequency ([1]; young mice, 50 μg/ml) was 4.53 ± 0.58 no/area. The Porosity ([1]; young mice, 50 μg/ml) was 6.08 ± 1.00%, the Diameter ([1]; young mice, 5000 μg/ml) was 130.48 ± 13.21 nm and the Frequency ([1]; young mice, 5000 μg/ml) was 5.53 ± 0.58 no/area. The Porosity ([1]; young mice, 5000 μg/ml) was 8.05 ± 2.23 %, the “shift in frequency distribution of fenestration diameter” value ([1]; young mice, NMN 5000 μg/ml, 7-ketocholesterol 3.6 μg/ml) was “an increase in 30-100 nm and 226-500 nm fenestrations with a reduction in 126-200 nm fenestrations” and the “diameter of fenestrations observed on SEM images” value [2] was “Increased diameter of fenestrations”. For the same molecule, the “sieve plate grouping on SEM images” value ([2]; old mice) was “greater fenestration sieve plate grouping”, the fenestration diameter ([2]; old mice, 50 μg/ml) was 133.4±0.9 nm and the fenestration frequency ([2]; old mice, 50 μg/ml) was 4.4±1.6 number/μm^2. For the same molecule, the fenestration porosity ([2]; old mice, 50 μg/ml) was 6.6±2.2%, the “peak frequency in histogram of fenestration diameter” value ([2]; old mice, bin range of 101-125 nm) was 24% and the “sieve plates and fenestration density on SEM images” value [2] was “promoted increased fenestration density and maintained sieve plate fenestration clustering”. For the same molecule, the fenestration frequency ([2]; young mice, 5 mg/ml) was 5.9±0.1 number/μm^2, the fenestration porosity ([2]; young mice, 5 mg/ml) was 9.1±2.0% and the “actin changes with drug treatments (dSTORM)” value [3] was “loss of smooth fibres encircling the cytoplasm; also recorded: disordered, dense actin staining in the plasma membrane and clustering of actin within the cytoplasm; also recorded: Individual fenestrations; also recorded: Disordered actin structure; also recorded: Actin clusters; also recorded: Gap formations”. For the same molecule, the “change of intracellular cGMP” value [4] was “no changes”, the “insulin action and secretion” value ([5]; diet and age induced type 2 diabetic mice models, similar dosages continuously for 7 days) was “improve insulin action and secretion” and the “NAD+” value ([5]; female mice, 15 mins after single intraperitoneal injection of 500 mg/kg) was “Elevated NAD+”. For the same molecule, the glucose tolerance [6] was “improved glucose tolerance” and the toxicity [6] was “non-toxic”.

B1: Tumor necrosis factor-related apoptosis inducing ligand (protein, UniProt P50591 1-281, looked up)
Tumor necrosis factor ligand …: MAMMEVQGGPSLGQTCVLIVIFTVLLQSLCVAVTYVYFTNELKQMQDKYSKSGIACFLKEDDSYWDPNDEESMNSPCWQVKWQLRQLVRKMILRTSEETISTVQEKQQNISPLVRERGPQRVAAHITGTRGRSNTLSSPNSKNEKALGRKINSWESSRSGHSFLSNLHLRNGELVIHEKGFYYIYSQTYFRFQEEIKENTKNDKQMVQYIYKYTSYPDPILLMKSARNSCWSKDAEYGLYSIYQGGIFELKENDRIFVSVTNEHLIDMDHEASFFGAFLVG
notes: death receptor 4/5 promoter
In the case of B1, the Diameter ([1]; old mice, 1 ng/ml) is reported as 127.50 ± 15.53 nm, the Frequency ([1]; old mice, 1 ng/ml) is reported as 1.97 ± 0.49 no/area and the Porosity ([1]; old mice, 1 ng/ml) is reported as 2.79 ± 0.14%. The Diameter ([1]; old mice, 10 ng/ml) was 120.08 ± 3.74 nm, the Frequency ([1]; old mice, 10 ng/ml) was 2.13 ± 0.48 no/area and the Porosity ([1]; old mice, 10 ng/ml) was 2.85 ± 0.53%. The Diameter ([1]; old mice, 100 ng/ml) was 130.88 ± 17.00 nm, the Frequency ([1]; old mice, 100 ng/ml) was 2.03 ± 0.53 no/area and the Porosity ([1]; old mice, 100 ng/ml) was 2.97 ± 0.46%. The “effect on porosity and fenestration frequency (summary in words)” value [1] was “LSECs from young mice only demonstrated significant increases in porosity and frequency”, the “dose response on fenestration porosity (words)” value ([1]; young mice) was “did not promote greater changes in fenestration porosity or frequency; also recorded: had the greatest activity and similar maximal efficacy to NMN but was more potent; also recorded: limited dosage range for positive effects on fenestration porosity” and the “increase in fenestration frequency” value ([1]; young mice) was 40%. For the same molecule, the increase in porosity ([1]; young mice) was 60%, the Diameter ([1]; young mice, 1 ng/ml) was 137.95 ± 8.12 nm and the Frequency ([1]; young mice, 1 ng/ml) was 4.47 ± 0.43 no/area. The Porosity ([1]; young mice, 1 ng/ml) was 7.17 ± 1.49 %, the “Change in Porosity, Young” value ([1]; young mice, 10 ng/ml) was “↑ (ns)” and the Diameter ([1]; young mice, 10 ng/ml) was 140.36 ± 3.22 nm. It also gave a Frequency ([1]; young mice, 10 ng/ml) of 3.73 ± 0.46 no/area, a Porosity ([1]; young mice, 10 ng/ml) of 6.24 ± 0.52 % and a Diameter ([1]; young mice, 100 ng/ml) of 145.87 ± 6.77 nm. The Frequency ([1]; young mice, 100 ng/ml) was 3.15 ± 0.27 no/area, the Porosity ([1]; young mice, 100 ng/ml) was 5.49 ± 0.63% and the “fenestration numbers, fenestrated cell area and sieve plate formation” value ([1]; young mice, sildenafil 0.3 μg/ml, amlodipine 20 ng/ml, TRAIL 1 ng/ml) was “increased fenestration numbers and overall fenestrated cell area with some disruption to sieve plate formation”. For the same molecule, the “sieve plate grouping on SEM images” value ([2]; old mice) was “greater fenestration sieve plate grouping”, the fenestration porosity ([2]; old mice, 1 μg/ml) was 2.7±0.1% and the “change in fenestration diameter” value ([2]; old mice, 7KC 4.5 μM) was “No changes in diameter”. The “sieve plates and fenestration density on SEM images” value [2] was “promoted increased fenestration density and maintained sieve plate fenestration clustering”, the fenestration frequency ([2]; young mice, 1 μg/ml) was 4.5±0.4 number/μm^2 and the fenestration porosity ([2]; young mice, 1 μg/ml) was 7.2±1.5%. The “change in fenestration diameter” value ([2]; young mice) was “No changes in diameter”, the “actin changes with drug treatments (dSTORM)” value [3] was “absence of the intense actin clustering; also recorded: Disordered actin structure; also recorded: Gap formations; also recorded: Minimal actin clustering” and the “increase of intracellular cGMP” value ([4]; p=0.001) was 3 fold. For the same molecule, the “NOS and phosphorylated NOS” value [7] was “upregulate NOS and phosphorylated NOS”.
